From US10759905B2, “Biodegradable amphiphilic polymer, polymeric vesicles prepared therefrom, and application of biodegradable amphiphilic polymer in preparation of medicines for targeted therapy of lung cancer” (priority 2015, dated 2020)
Where a name gives a salt, the structure may show the parent alone.

What was measured:
[1] = test system: H460 subcutaneous lung cancer; test: Anti-tumor effect in mice bearing H460 subcutaneous lung cancer; type: in vivo
From the text: The establishment of a subcutaneous H460 tumor-bearing mice model was the same as that in Example 33.

[2] = test system: H460 human lung cancer cells; test: MTT assay, toxicity of drug-loaded vesicles on H460 cells; type: cell-based; details: NCI-H460, 4 h co-cultivation, then 44 h in fresh medium
Experimental: MTT assay was used to test the toxicity of the polymeric vesicles on H460 human lung cancer cells. […] After co-cultivation for 4 hours, the samples were aspirated and replaced with fresh medium to continue incubation for 44 hours. The subsequent addition of MTT, treatment, and measurement of absorbance were the same as those in Example 26.

[3] = test system: orthotopic A549 lung cancer (A549-Luc); details: for bioluminescence intensity of the lung tumor / tumor growth: i.v. on Days 0, 4, 8 and 12, within 16 days; for survival of the mice (all survived / all dead): orthotopic A549
Experimental: Balb/C nude mice weighing approximately 18 to 20 grams (aged 4 to 6 weeks) were selected for the experiment. 5×10^6 bioluminescent A549 human lung cancer cells (A549-Luc) were directly injected in the lungs. After about 10 days, the mice were observed by an in vivo imaging system for small animals. […] From Day 0 to Day 16, the body weights of the mice were measured every four days. The bioluminescence intensity of the lung tumor in mice was monitored using an in vivo imaging system for small animals. The survival of the mice was observed up to 45 days.
The PTG-loaded cRGD/CLPs, the non-targeted self-crosslinked polymeric vesicle CLPs, Taxol, and PBS were injected into mice, respectively.

[4] = in vivo; details: Balb/C nude, mouse, iv, 10 mg/kg
[5] = test system: A549 subcutaneous lung cancer; test: Anti-tumor effect in mice bearing A549 subcutaneous lung cancer; type: in vivo; details: i.v. on Day 0, 4, 8 and 12, DOX 10 mg/kg; Day 18
Experimental: The volumes of the tumor were measured by a vernier caliper. The tumor volume was calculated as: V=(L×W×H)/2 (wherein L was the tumor length, W was the tumor width, and H was the tumor thickness). The survival of the mice were observed up to 45 days.
The establishment of a subcutaneous A549 tumor-bearing mice model, administration via tail vein, and data collection were the same as those in Example 37.

[6] = test system: A549 lung cancer cells; test: MTT assay, toxicity of drug-loaded vesicles on A549 cells; type: cell-based; details: Homo sapiens, A549, read-out: half inhibition concentration (IC50) for A549 cells
Experimental: The toxicity of the polymeric vesicles on A549 cells was tested by MTT assay. […] The concentrations of DOX.HCl were 0.01, 0.1, 0.5, 1, 5, 10, 20 and 40 μg/mL, respectively. The content of the targeting molecules ranged from 10%, 20% to 30%; the non-targeted drug-loaded self-crosslinked polymeric vesicle group and the free DOX.HCl group were used as control groups. After co-cultivation for 4 hours, the samples were aspirated and replaced with fresh medium to continue incubation for 44 hours.

| Structure (SMILES) | body weight decrease ([1]; Day 10) [%] | tumor growth ([1]; i.v., CPT.HCl, Day 18) | survival of the mice (all survived / all dead) ([1]; subcutaneous H460) [days] | IC50 [2] [µg/mL] | body weight decrease ([3]; Day 3) [%] | bioluminescence intensity of the lung tumor / tumor growth [3] | survival of the mice (all survived / all dead) [3] [days] | half-life [4] [min] | tumor growth [5] | IC50 [6] [µg/mL] |
| --- | --- | --- | --- | --- | --- | --- | --- | --- | --- | --- |
| CCc1c2c(nc3ccc(OC(=O)N4CCC(N5CCCCC5)CC4)cc13)-c1cc3c(c(=O)n1C2)COC(=O)[C@]3(O)CC [CPT.HCl, irinotecan hydrochloride] | 18 | could also inhibit the growth of tumor | ≤ 28 | 3.09 | 21 | could also inhibit the growth of tumor | ≤ 34 |  |  |  |
| COc1cccc2c1C(=O)c1c(O)c3c(c(O)c1C2=O)C[C@@](O)(C(=O)CO)C[C@@H]3O[C@H]1C[C@H](N)[C@H](O)[C@H](C)O1 [DOX.HCl, doxorubicin hydrochloride] |  |  |  |  |  | could also inhibit the growth of tumor | ≤ 30 | 16.2 | could also inhibit the growth of tumor | 4.89 |
| CC(=O)O[C@H]1C(=O)[C@@]2(C)[C@H]([C@H](OC(=O)c3ccccc3)[C@]3(O)C[C@H](OC(=O)[C@H](O)[C@@H](NC(=O)c4ccccc4)c4ccccc4)C(C)=C1C3(C)C)[C@]1(OC(C)=O)CO[C@@H]1C[C@@H]2O [PTX, paclitaxel] |  |  |  |  |  | could also inhibit the growth of tumor | ≤ 29 |  |  |  |
